Patent US11077035B2, “Hair treatment compositions and methods” (SYTHEON LIMITED, priority 2017, dated 2021)

Key:
[1] = for Cu^2+ chelation capability, in words: with CaCl2 (study 2A); for change in fluorescence decay pattern with and without ten-fold excess of CaCl2 (selectivity Cu^2+ over Ca^2+): comparison of studies 2A and 2B
Protocol: Food Chem: 50(10); 2772-2777, 2002
The first chelation study (2A) evaluated the Cu^2+ chelation capability of the test and comparative chelators in the presence of excess Ca^2+. Here, a Fenton reaction was initiated with a mixture of Cu^2+, CaCl2 and hydrogen peroxide at alkaline condition, the mixture comprising [CuCl2]=200 μM, [H2O2]=0.055 μM, [CaCl2]2.3 mM, and [FL]=6.20×10^−8 M. The test compounds were evaluated at a concentration of 600 μM for each of Compounds 1D, 1E and 1F and Deferiprone (a 3 molar excess) and 200 μM for each of EDDS and EDTA.

[2] = Chelation study 2C: Fe^2+ chelation; details: for % Remaining of FL (20 min) / % Remaining of FL (40 min) / % Remaining of FL (80 min): Fe^2+ ions 200 μM
[3] = Chelation study 2D: Fe^3+ chelation; details: for Fe^3+ chelation capability, in words: study 2D; for % Remaining of FL (20 min) / % Remaining of FL (40 min) / % Remaining of FL (80 min): Fe^3+ ions
Singlet oxygen quenching = assay type: biochemical
Description: The first study evaluated the quenching ability of the aryl alkanones versus αTocopherol. The test methodology employed is the method of W. Mullen et al., J of Agriculture & Food Chemistry, 59(9):3754-3762, 2011).

[4] = Stability under singlet oxygen environment (HPLC); assay type: physicochemical
Protocol: A second study was performed to determine the stability of the aryl alkanones and α tocopherol under a singlet oxygen environment. In this study, 5 ml of 1 mg/ml solution of each test compound (in DMSO) was mixed with 5 ml of a solution (pH 5) containing 0.16 mg/ml lithium molybdate, 4 ml 0.01 M NaOH, and 5 ml of 0.015% H2O2. 500 μl from each mixture was taken every 2 mins and added to 1 ml of 1 mg/ml curcumin solution (in DMSO) to stop the reaction. The mixture was then injected into an HPLC to monitor product degradation.

| SMILES | Cu^2+ chelation capability, in words [1] | Fe^3+ chelation capability, in words [3] | change in fluorescence decay pattern with and without ten-fold excess of CaCl2 (selectivity Cu^2+ over Ca^2+) [1] | Antioxidant Power against singlet oxygen (Singlet oxygen quenching) | % Remaining of FL (20 min) [2] | % Remaining of FL (40 min) [2] | % Remaining of FL (80 min) [2] | other results |
| --- | --- | --- | --- | --- | --- | --- | --- | --- |
| Cc1c(O)c(=O)ccn1C [Deferiprone, reference compound] | moderate chelation capability | performed poorly | – | – | – | – | – | Fe^2+ chelation capability, in words ([2]; study 2C): good chelation capability |
| COc1ccc(CC(C(C)=O)C(C)=O)cc1 [Compound 1E, 3-(4-methoxybenzyl)-2,4-pentanedione] | almost completely chelated | – | very little change | 4,374 μmole Trolox equivalent/g | 99.6% | 99.2% | 99.2% | – |
| O=C(O)CC(NCCNC(CC(=O)O)C(=O)O)C(=O)O (stereo not shown) [EDDS, ethylenediamine-N,N′-disuccinic acid, reference compound] | poor chelating capabilities | – | – | – | – | – | – | chelation of copper, in words ([1]; general statement on applicant's studies in the background): not an effective chelating agent |
| COc1ccc(CC(C(C)=O)C(C)=O)cc1OC [Compound 1D, 3-(3,4-dimethoxybenzyl)-2,4-pentanedione] | almost completely chelated | – | very little change | 4,590 μmole Trolox equivalent/g | 98.3% | 98.3% | 98.3% | – |
| CCOC(=O)C(C)C(Cc1ccc(O)c(OC)c1)C(C)=O (stereo not shown) [Compound 2M, 3-(3-methoxy-4-hydroxybenzyl)-4-ethylester-2-pentanone] | – | – | – | – | – | – | – | % Remaining of FL (20 min) [3]: 99.8%; % Remaining of FL (40 min) [3]: 99.3%; % Remaining of FL (80 min) [3]: 98.5% |
| O=C(O)CN(CCN(CC(=O)O)CC(=O)O)CC(=O)O [EDTA, ethylenediamine tetraacetic acid, reference compound] | poor chelating capabilities | moderate chelating capabilities | – | – | – | – | – | – |
| Cc1c(C)c2c(c(C)c1O)CC[C@@](C)(CCC[C@H](C)CCC[C@H](C)CCCC(C)C)O2 [α Tocopherol, reference compound] | – | – | – | 2,636 μmole Trolox equivalent/g | – | – | – | Stability % Product remaining ([4]; singlet oxygen environment (lithium molybdate/H2O2), 2 min): 73%; Stability % Product remaining ([4]; singlet oxygen environment (lithium molybdate/H2O2), 4 min): 58%; Stability % Product remaining ([4]; singlet oxygen environment (lithium molybdate/H2O2), 6 min): 47%; Stability % Product remaining ([4]; singlet oxygen environment (lithium molybdate/H2O2), 8 min): 39%; Stability % Product remaining ([4]; singlet oxygen environment (lithium molybdate/H2O2), 10 min): 35% |
| CC(=O)N(O)CCCCCNC(=O)CCC(=O)N(O)CCCCCNC(=O)CCC(=O)N(O)CCCCCN [Desferal, reference compound] | – | moderate chelating capabilities | – | – | – | – | – | – |
| COc1cc(CC(C(C)=O)C(C)=O)ccc1O [Compound 1M, 3-(3-methoxy-4-hydroxybenzyl)-2,4-pentanedione] | – | – | – | 7,180 μmole Trolox equivalent/g | – | – | – | Stability % Product remaining ([4]; 2 min, 0.5 mg/ml, pH 5): 95%; Stability % Product remaining ([4]; 4 min, 0.5 mg/ml, pH 5): 91%; Stability % Product remaining ([4]; 0.1 h, 0.5 mg/ml, pH 5): 88%; Stability % Product remaining ([4]; 8 min, 0.5 mg/ml, pH 5): 85%; Stability % Product remaining ([4]; 10 min, 0.5 mg/ml, pH 5): 82%; % Remaining of FL (20 min) [3]: 100%; % Remaining of FL (40 min) [3]: 100%; % Remaining of FL (80 min) [3]: 100% |
| COc1cc(CC(C(C)=O)C(C)=O)cc(OC)c1OC [Compound 1F, 3-(3,4,5-trimethoxybenzyl)-2,4-pentanedione] | almost completely chelated | – | very little change | 6,359 μmole Trolox equivalent/g | 98.6% | 98.1% | 97.7% | Stability % Product remaining ([4]; 2 min, 0.5 mg/ml, pH 5): 92%; Stability % Product remaining ([4]; 4 min, 0.5 mg/ml, pH 5): 87%; Stability % Product remaining ([4]; 0.1 h, 0.5 mg/ml, pH 5): 85%; Stability % Product remaining ([4]; 8 min, 0.5 mg/ml, pH 5): 81%; Stability % Product remaining ([4]; 10 min, 0.5 mg/ml, pH 5): 80% |
